Data on 15 molecules can be found in PMC8560999 (The Journal of Biological Chemistry, 2021).

Like-named read-outs stand apart in the source and are kept apart here.

In series [1] the target is 4-hydroxy-2-keto-heptane-1,7-dioate aldolase from Acinetobacter baumannii (Acinetobacter baumannii). The experiment in a line: SEC; Superdex 200 Increase 10/300 GL, 10 mM HEPES pH 7.0 with 150 mM NaCl, 0.5 ml/min, 25 °C, calibrated with protein standards of 12.4-440 kDa.
For series [2] the target is unchanged. As to the kind of experiment: crystal structure; 11 structures of AbHpaI (apo and with M2+ and ligands), monoclinic C2 crystals, trimer per asymmetric unit, hexamer by twofold rotational symmetry; crystals grown with sodium acetate pH 4.6, CaCl2 and 30% MPD.
Series [3] relates to AbHpaI•Zn^2+. Type of series: biochemical, Acinetobacter baumannii.
The subject of series [4] is AbHpaI•Zn^2+. Type of series: biochemical, Acinetobacter baumannii. This is another data set of the same source.
In series [5] the test system is AbHpaI•Zn^2+. The experiment in a line: Steady-state aldol cleavage followed as substrate depletion by RapidFire high-throughput mass spectrometry in 10 mM HEPES pH 7.0 with 0.1 mM Zn2+ and 5 uM ((4R)-KDGal) or 40 uM ((4S)-KDGlu) enzyme, Michaelis-Menten fit. It is filed as biochemical. How it is done:
The aldol cleavage steady-state kinetics of (4R)-KDGal and (4S)-KDGlu catalyzed by AbHpaI•Zn^2+ were carried out using RapidFire high-throughput mass spectrometry. The reactions contained 0.1 mM ZnCl2 and the purified AbHpaI in buffer H and varying concentrations of the substrate. […] Before RapidFire analysis, the reaction was quenched by an equal volume of ACN at various times (0.5–30 min) and the quenched solution was centrifuged at 12,000g for 10 min and filtered by a 0.22-μm nylon membrane syringe filter (FilterBio Nylon Syringe Filter) to obtain the filtrate of the remaining substrate. The substrate control reaction without the enzyme was performed. […] Peak areas of the remaining substrate were measured in a negative mode with a quantitative selected ion monitoring (SIM) mode to detect the m/z 177.0 ([M-H]^−) of both (4R)-KDGal and (4S)-KDGlu, and the concentrations were determined from the calibration plot of substrate standard concentrations (0.025–3.2 mM) versus peak areas. The initial velocity (νo) of the substrate depletion from each individual concentration of substrate was calculated from the slope of the plot between the remaining substrate and time. The plots of νo versus each substrate concentration were analyzed by Michaelis–Menten equation using the Levenberg–Marquardt algorithms in GraphPad Prism version 7 software (GraphPad Software, Inc) to determine Km and kcat.

The subject of the next series is BxBphI. To be noted: cited from earlier work.
Series [6] concerns AbHpaI. It is filed as biochemical, Acinetobacter baumannii.
For series [7], the system named is AbHpaI. It is filed as physicochemical, Acinetobacter baumannii.
The test system of series [8] is AbHpaI. Type of series: binding, Acinetobacter baumannii.
In series [9] the test system is AbHpaI. It is filed as physicochemical, Acinetobacter baumannii. The source holds these as a separate data set.
The subject of series [10] is AbHpaI•Zn^2+. Conditions: read-out: Km (mM), aldol condensation of (4R)-KDGal synthesis, D-glyceraldehyde varied.
Another series deals with AbHpaI•Mn^2+. As to the kind of experiment: Isothermal titration calorimetry (MicroCal PEAQ-ITC) of 10 mM pyruvate into 40 uM apo-AbHpaI mixed with metal ion at 10 times its Kd, 50 mM HEPES pH 7.0, 25 °C, one-site binding model. How it is done:
(§1) The Kd values for the binding of AbHpaI with ligands including M^2+ ions (Zn^2+, Co^2+, Mn^2+, Mg^2+, and Ca^2+) and pyruvate were measured by MicroCal PEAQ-ITC technique (Malvern Panalytical). Briefly, a 10-ml solution of apo-AbHpaI (200 μM) was dialyzed in 2 l of buffer F at 4 °C for 16 to 18 h. The dialyzed buffer was used to prepare a stock solution of each ligand. To measure the Kd value for the AbHpaI•M^2+ complex, a 200-μl solution of the apo-AbHpaI (40 μM) was loaded into the sample cell and the Milli-Q Type I ultrapure water was used as a reference. Three microliters of 1.5 mM ligand solution of each M^2+ in a syringe was continuously titrated into the sample cell (0.3 μM per each injection for 13 injections) until the ligand binding reached an equilibrium at 25 °C. The Microcal PEAQ-ITC analysis software was used to calculate the Kd using the one-site binding model. To determine the pyruvate binding constant to AbHpaI, a 200-μl solution of the apo-AbHpaI (40 μM) was placed in the sample cell and sequentially titrated with 3 μl of 10 mM pyruvate solution from a syringe. To determine the pyruvate binding constant to the AbHpaI•M^2+ complex, a 200-μl solution of the mixture of apo-AbHpaI (40 μM) and 10 Kd of each M^2+ was placed in the sample cell and sequentially titrated with 3 μl of a 10 mM solution mixture of pyruvate and 10 Kd of each M^2+.

In the next series the target is AbHpaI•Co^2+. Described as above. How it is done:
as §1

In series [11] the target is AbHpaI•Zn^2+. The description is as above. On the procedure:
as §1

A further series has as its system EcHpaI. Conditions: cited from earlier work.

As to “4-hydroxy-2-keto-heptane-1,7-dioate aldolase from Acinetobacter baumannii (enzyme)”, the stoichiometry N in series [1] and in series [2] was 6 in each case.
On to `O=C(O)C(=O)CC(O)C(O)CO` [(4R)-KDGal, (4R)-2-keto-3-deoxy-D-galactonate], for which the “turnover number of (4R)-KDGal synthesis” value in the series with AbHpaI•Zn^2+ [3] was around 1.67 s⁻¹. In the series with AbHpaI•Zn^2+ [4], the Michaelis-Menten constant (Km) came out at 300 ± 100 µM; the turnover number (kcat) was found to be 0.05 ± 0.005 s⁻¹; the “kcat of cleavage, fold faster than (4S)-KDGlu” value came out at 18 fold; the “kcat/Km of cleavage, fold greater than (4S)-KDGlu” value was “about 36 fold”.
On to `O=C(O)C(=O)C[C@@H](O)[C@H](O)CO` [(4R)-KDGal, (4R)-2-keto-3-deoxy-D-galactonate], for which, in the series on AbHpaI•Zn^2+ [5], the Km is 0.3 ± 0.1 mM.
In the case of `C[C@H](O)CC(=O)C(=O)O` [(4S)-HOPA, 4-hydroxy-2-oxopentanoate], in the series on BxBphI, the “turnover number, aldol cleavage” value is 4 s⁻¹ and the “turnover number, condensation” value is 0.9 s⁻¹.
`O=C(O)C(=O)C[C@H](O)[C@H](O)CO` [(4S)-KDGlu, (4S)-2-keto-3-deoxy-D-gluconate]: the kcat in the series on AbHpaI•Zn^2+ [4] came to 0.00283 ± 0.00017 s⁻¹. Further, the “(4S)-KDGlu formation as compared to (4R)-KDGal” value with AbHpaI [6] was 0.1%. For the same molecule, the Km in the series with AbHpaI•Zn^2+ [5] came out at 0.6 ± 0.1 mM.
For the molecule `CC#N` [ACN, acetronitrile], the “protein stability of AbHpaI perturbed” value in the series with AbHpaI [7] is 10%.
As for `[Ca+2]` [Ca^2+], in the series on AbHpaI [8], the “mole ratio of metal ion per AbHpaI” value was determined as 0.1.
As for `[Co+2]` [Co^2+], the “mole ratio of metal ion per AbHpaI” value with AbHpaI [8] is given as 0.8. The shift in melting temperature (ΔTm) with AbHpaI [9] turned out to be 3.4 °C.
Take `O=C[C@H](O)CO` [D-Glyceraldehyde, D-glyceraldehyde]: the turnover number (kcat) in the series on AbHpaI•Zn^2+ [3] was found to be 2.048 ± 0.293 s⁻¹. Moreover, in the series with AbHpaI•Zn^2+ [10], the Michaelis constant (Km) is 10.6 ± 3.6 mM.
For `C[S+](C)[O-]` [DMSO, dimethylsulfoxide], the “protein stability of AbHpaI perturbed” value with AbHpaI [7] is 10%.
With `CO` [MeOH, methanol], in the series on AbHpaI [7], the “protein stability of AbHpaI perturbed” value is 10%.
As to `[Mg+2]` [Mg^2+], the “mole ratio of metal ion per AbHpaI” value in the series on AbHpaI [8] is reported as 0.6.
Consider `[Mn+2]` [Mn^2+], for which the “mole ratio of metal ion per AbHpaI” value in the series on AbHpaI [8] came out at 0.6. For the same molecule, in the series on AbHpaI [9], the shift in melting temperature (ΔTm) amounted to 1.7 °C.
Turning to `CC(=O)C(=O)O` [Pyruvate, pyruvate], the Km with AbHpaI•Zn^2+ [3] was 1600 ± 700 µM. For the same molecule, the turnover number (kcat) in the series on AbHpaI•Zn^2+ [3] is 1.713 ± 0.265 s⁻¹. Also, the Kd is 1320 ± 500 µM on AbHpaI•Mn^2+, 320 ± 40 µM at AbHpaI•Co^2+ and 980 ± 60 µM at AbHpaI•Zn^2+ [11]. Besides, the “pKa of pyruvate C3-methyl” value in the series with EcHpaI is listed as around 6.5.
On to `[Zn+2]` [Zn^2+], for which the “mole ratio of metal ion per AbHpaI” value with AbHpaI [8] is 1.1. In addition, in the series with AbHpaI [9], the Tm turned out to be 87 °C and the ΔTm was found to be 5.7 °C.
